Experimental data taken from US20080274892A1, “Novel Haloalkylsulfonanilide Derivative, Herbicide, and Method of Use Thereof” (priority 2005, published 2008).

Experiments:
bulrush [1] = assay: Test Example 1: herbicidal efficacy on rice paddy weeds pre-emergence; format: in vivo, Scirpus juncoides; details: dosage 1000 g/ha, 21 days
bulrush [2] = assay: Test Example 2: herbicidal efficacy on rice paddy weeds post-emergence; format: in vivo, Scirpus juncoides; details: dosage 1000 g/ha; post-emergence, one leaf stage; 21 days after treatment
false pimpernel [3] = assay: as above; format: in vivo, Lindernia pyxidaria; details: dosage 1000 g/ha; post-emergence, one leaf stage; 21 days after treatment
[4] = test system: transplanted paddy rice plant and Bulrush; assay: Test Example 5: selectivity between transplanted paddy rice plant and weeds; format: in vivo; details: (highest dosage with no phytotoxicity to paddy rice)/(lowest dosage with effective level 4 on Bulrush); rice 3000-100 g/ha, Bulrush 300-10 g/ha; 21 days
Procedure, shortened: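 Scoring ran 21 days after treatment in a hothouse on a 0–4 scale (4 = 90–100%, 3 = 70–89%, 2 = 40–69%, 1 = 1–39%, 0 = none) relative to untreated plants. Post-emergence bulrush received 10, 30, 100 and 300 g/ha active ingredient. Transplanted rice received 100, 300, 1000 and 3000 g/ha to assess crop injury.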

[5] = test system: paddy rice plant (cultivar: Nihonbare); assay: Test Example 3: phytotoxicity test for transplanted paddy rice plant; format: in vivo; details: dosage 1000 g/ha; transplanted rice, treated 5 days after transplantation; 21 days after treatment
Procedure, shortened: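 Clay loam soil was placed in a 75 cm^2 plastic pot and flooded to a water depth of 5 cm. Two Nihonbare paddy rice plants at the two-leaf stage were transplanted 1 cm deep and grown in a hot house. After treatment, pots stayed in the hot house for 21 days, and phytotoxicity was then graded against an untreated control.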

false pimpernel [6] = assay: Test Example 1: herbicidal efficacy on rice paddy weeds pre-emergence; format: in vivo, Lindernia pyxidaria; details: dosage 1000 g/ha, 21 days
barnyard glass = assay: Test Example 2: herbicidal efficacy on rice paddy weeds post-emergence; format: in vivo, Echinochloa crus-galli; details: dosage 1000 g/ha; post-emergence, one leaf stage; 21 days after treatment
Procedure, shortened: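 Efficacy on paddy weeds was scored on a 0 to 4 growth-inhibition scale: 4 for 90%-100%, 3 for 70%-89%, 2 for 40%-69%, 1 for 1%-39% and 0 for 0%. Barnyard glass was grown in clay loam in 75 cm^2 pots under 5 cm of water in a hot house. It was compared with untreated pots 21 days after treatment.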

bulrush [7] = assay: Test Example 4: low dosage test for rice paddy weeds; format: in vivo, Scirpus juncoides; details: 300 g/ha as an active ingredient; plants treated at the one leaf stage; 21 days after treatment; vs untreated control
Procedure, shortened: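 Compound applied as a formulation at 300 g/ha to one-leaf bulrush grown in flooded clay loam (5 cm water) in a hot house. After 21 days, growth inhibition versus untreated plants rated on a 0–4 scale, with 4 meaning 90–100%.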

CC(C)COC(=O)N(c1ccccc1CN1CC2(CCC2)OC1=O)S(=O)(=O)C(F)(F)F [1-86]
Bulrush pre (herbicidal efficacy grade) (bulrush [1]): 4 (90%-100% of herbicidal efficacy or phytotoxicity) | Bulrush post (herbicidal efficacy grade) (bulrush [2]): 4 (90%-100% of herbicidal efficacy or phytotoxicity) | False pimpernel post (herbicidal efficacy grade) (false pimpernel [3]): 4 (90%-100% of herbicidal efficacy or phytotoxicity) | Selective Index [4]: 10 | Phytotoxicity to paddy rice [5]: 1 (1%-39% of herbicidal efficacy or phytotoxicity) | False pimpernel pre (herbicidal efficacy grade) (false pimpernel [6]): 4 (90%-100% of herbicidal efficacy or phytotoxicity) | Burnyard grass post (herbicidal efficacy grade) (barnyard glass): 4 (90%-100% of herbicidal efficacy or phytotoxicity) | Herbicide effect to Bulrush (bulrush [7]): 4 (90%-100% of herbicidal efficacy or phytotoxicity)

CC(C)COC(=O)N(c1ccccc1CN1CC2(CC2)OC1=O)S(=O)(=O)C(F)(F)F [1-89]
Bulrush pre (herbicidal efficacy grade) (bulrush [1]): 4 (90%-100% of herbicidal efficacy or phytotoxicity) | Bulrush post (herbicidal efficacy grade) (bulrush [2]): 4 (90%-100% of herbicidal efficacy or phytotoxicity) | False pimpernel post (herbicidal efficacy grade) (false pimpernel [3]): 4 (90%-100% of herbicidal efficacy or phytotoxicity) | Selective Index [4]: 10 | Phytotoxicity to paddy rice [5]: 1 (1%-39% of herbicidal efficacy or phytotoxicity) | False pimpernel pre (herbicidal efficacy grade) (false pimpernel [6]): 4 (90%-100% of herbicidal efficacy or phytotoxicity) | Burnyard grass post (herbicidal efficacy grade) (barnyard glass): 4 (90%-100% of herbicidal efficacy or phytotoxicity) | Herbicide effect to Bulrush (bulrush [7]): 4 (90%-100% of herbicidal efficacy or phytotoxicity)

CCCOC(=O)N(c1ccccc1CN1CC(C)(CC)OC1=O)S(=O)(=O)C(F)(F)F (stereo not drawn) [1-90]
Bulrush pre (herbicidal efficacy grade) (bulrush [1]): 4 (90%-100% of herbicidal efficacy or phytotoxicity) | Bulrush post (herbicidal efficacy grade) (bulrush [2]): 4 (90%-100% of herbicidal efficacy or phytotoxicity) | False pimpernel post (herbicidal efficacy grade) (false pimpernel [3]): 4 (90%-100% of herbicidal efficacy or phytotoxicity) | Selective Index [4]: 30 | Phytotoxicity to paddy rice [5]: 3 (70%-89% of herbicidal efficacy or phytotoxicity) | False pimpernel pre (herbicidal efficacy grade) (false pimpernel [6]): 4 (90%-100% of herbicidal efficacy or phytotoxicity) | Burnyard grass post (herbicidal efficacy grade) (barnyard glass): 4 (90%-100% of herbicidal efficacy or phytotoxicity) | Herbicide effect to Bulrush (bulrush [7]): 4 (90%-100% of herbicidal efficacy or phytotoxicity)

CCCCCOC(=O)N(c1ccccc1CN1CC(C)(CC)OC1=O)S(=O)(=O)C(F)(F)F (stereo not drawn) [1-91]
Bulrush pre (herbicidal efficacy grade) (bulrush [1]): 4 (90%-100% of herbicidal efficacy or phytotoxicity) | Bulrush post (herbicidal efficacy grade) (bulrush [2]): 4 (90%-100% of herbicidal efficacy or phytotoxicity) | False pimpernel post (herbicidal efficacy grade) (false pimpernel [3]): 4 (90%-100% of herbicidal efficacy or phytotoxicity) | Selective Index [4]: 30 | Phytotoxicity to paddy rice [5]: 3 (70%-89% of herbicidal efficacy or phytotoxicity) | False pimpernel pre (herbicidal efficacy grade) (false pimpernel [6]): 4 (90%-100% of herbicidal efficacy or phytotoxicity) | Burnyard grass post (herbicidal efficacy grade) (barnyard glass): 4 (90%-100% of herbicidal efficacy or phytotoxicity) | Herbicide effect to Bulrush (bulrush [7]): 4 (90%-100% of herbicidal efficacy or phytotoxicity)

CCCCCOC(=O)N(c1ccccc1CN1CC(C)(C)OC1=O)S(=O)(=O)C(F)(F)F [1-92]
Bulrush pre (herbicidal efficacy grade) (bulrush [1]): 4 (90%-100% of herbicidal efficacy or phytotoxicity) | Bulrush post (herbicidal efficacy grade) (bulrush [2]): 4 (90%-100% of herbicidal efficacy or phytotoxicity) | False pimpernel post (herbicidal efficacy grade) (false pimpernel [3]): 4 (90%-100% of herbicidal efficacy or phytotoxicity) | Selective Index [4]: 30 | Phytotoxicity to paddy rice [5]: 3 (70%-89% of herbicidal efficacy or phytotoxicity) | False pimpernel pre (herbicidal efficacy grade) (false pimpernel [6]): 4 (90%-100% of herbicidal efficacy or phytotoxicity) | Burnyard grass post (herbicidal efficacy grade) (barnyard glass): 4 (90%-100% of herbicidal efficacy or phytotoxicity) | Herbicide effect to Bulrush (bulrush [7]): 4 (90%-100% of herbicidal efficacy or phytotoxicity)

CCCCCCOC(=O)N(c1ccccc1CN1CC(C)(C)OC1=O)S(=O)(=O)C(F)(F)F [1-93]
Bulrush pre (herbicidal efficacy grade) (bulrush [1]): 4 (90%-100% of herbicidal efficacy or phytotoxicity) | Bulrush post (herbicidal efficacy grade) (bulrush [2]): 4 (90%-100% of herbicidal efficacy or phytotoxicity) | False pimpernel post (herbicidal efficacy grade) (false pimpernel [3]): 4 (90%-100% of herbicidal efficacy or phytotoxicity) | Selective Index [4]: ≧30 | Phytotoxicity to paddy rice [5]: 1 (1%-39% of herbicidal efficacy or phytotoxicity) | False pimpernel pre (herbicidal efficacy grade) (false pimpernel [6]): 4 (90%-100% of herbicidal efficacy or phytotoxicity) | Burnyard grass post (herbicidal efficacy grade) (barnyard glass): 4 (90%-100% of herbicidal efficacy or phytotoxicity) | Herbicide effect to Bulrush (bulrush [7]): 4 (90%-100% of herbicidal efficacy or phytotoxicity)

CCCCCCCOC(=O)N(c1ccccc1CN1CC(C)(C)OC1=O)S(=O)(=O)C(F)(F)F [1-94]
Bulrush pre (herbicidal efficacy grade) (bulrush [1]): 4 (90%-100% of herbicidal efficacy or phytotoxicity) | Bulrush post (herbicidal efficacy grade) (bulrush [2]): 4 (90%-100% of herbicidal efficacy or phytotoxicity) | False pimpernel post (herbicidal efficacy grade) (false pimpernel [3]): 4 (90%-100% of herbicidal efficacy or phytotoxicity) | Selective Index [4]: ≧30 | Phytotoxicity to paddy rice [5]: 1 (1%-39% of herbicidal efficacy or phytotoxicity) | False pimpernel pre (herbicidal efficacy grade) (false pimpernel [6]): 4 (90%-100% of herbicidal efficacy or phytotoxicity) | Burnyard grass post (herbicidal efficacy grade) (barnyard glass): 4 (90%-100% of herbicidal efficacy or phytotoxicity) | Herbicide effect to Bulrush (bulrush [7]): 4 (90%-100% of herbicidal efficacy or phytotoxicity)

CC(C)COC(=O)N(c1ccccc1CN1C(=O)OC(C)(C)C1C)S(=O)(=O)C(F)(F)F (stereo not drawn) [1-95]
Bulrush pre (herbicidal efficacy grade) (bulrush [1]): 4 (90%-100% of herbicidal efficacy or phytotoxicity) | Bulrush post (herbicidal efficacy grade) (bulrush [2]): 4 (90%-100% of herbicidal efficacy or phytotoxicity) | False pimpernel post (herbicidal efficacy grade) (false pimpernel [3]): 4 (90%-100% of herbicidal efficacy or phytotoxicity) | Selective Index [4]: 30 | Phytotoxicity to paddy rice [5]: 3 (70%-89% of herbicidal efficacy or phytotoxicity) | False pimpernel pre (herbicidal efficacy grade) (false pimpernel [6]): 4 (90%-100% of herbicidal efficacy or phytotoxicity) | Burnyard grass post (herbicidal efficacy grade) (barnyard glass): 4 (90%-100% of herbicidal efficacy or phytotoxicity) | Herbicide effect to Bulrush (bulrush [7]): 4 (90%-100% of herbicidal efficacy or phytotoxicity)

CCOC(=O)N(c1ccccc1CN1CC(CC)(CC)OC1=O)S(=O)(=O)C(F)(F)F [1-97]
Bulrush pre (herbicidal efficacy grade) (bulrush [1]): 4 (90%-100% of herbicidal efficacy or phytotoxicity) | Bulrush post (herbicidal efficacy grade) (bulrush [2]): 4 (90%-100% of herbicidal efficacy or phytotoxicity) | False pimpernel post (herbicidal efficacy grade) (false pimpernel [3]): 4 (90%-100% of herbicidal efficacy or phytotoxicity) | Selective Index [4]: 30 | Phytotoxicity to paddy rice [5]: 1 (1%-39% of herbicidal efficacy or phytotoxicity) | False pimpernel pre (herbicidal efficacy grade) (false pimpernel [6]): 4 (90%-100% of herbicidal efficacy or phytotoxicity) | Burnyard grass post (herbicidal efficacy grade) (barnyard glass): 4 (90%-100% of herbicidal efficacy or phytotoxicity) | Herbicide effect to Bulrush (bulrush [7]): 4 (90%-100% of herbicidal efficacy or phytotoxicity)

CCCOC(=O)N(c1ccccc1CN1CC(CC)(CC)OC1=O)S(=O)(=O)C(F)(F)F [1-98]
Bulrush pre (herbicidal efficacy grade) (bulrush [1]): 4 (90%-100% of herbicidal efficacy or phytotoxicity) | Bulrush post (herbicidal efficacy grade) (bulrush [2]): 4 (90%-100% of herbicidal efficacy or phytotoxicity) | False pimpernel post (herbicidal efficacy grade) (false pimpernel [3]): 4 (90%-100% of herbicidal efficacy or phytotoxicity) | Selective Index [4]: 10 | Phytotoxicity to paddy rice [5]: 1 (1%-39% of herbicidal efficacy or phytotoxicity) | False pimpernel pre (herbicidal efficacy grade) (false pimpernel [6]): 4 (90%-100% of herbicidal efficacy or phytotoxicity) | Burnyard grass post (herbicidal efficacy grade) (barnyard glass): 4 (90%-100% of herbicidal efficacy or phytotoxicity) | Herbicide effect to Bulrush (bulrush [7]): 4 (90%-100% of herbicidal efficacy or phytotoxicity)

CCCCOC(=O)N(c1ccccc1CN1CC(CC)(CC)OC1=O)S(=O)(=O)C(F)(F)F [1-99]
Bulrush pre (herbicidal efficacy grade) (bulrush [1]): 4 (90%-100% of herbicidal efficacy or phytotoxicity) | Bulrush post (herbicidal efficacy grade) (bulrush [2]): 4 (90%-100% of herbicidal efficacy or phytotoxicity) | False pimpernel post (herbicidal efficacy grade) (false pimpernel [3]): 4 (90%-100% of herbicidal efficacy or phytotoxicity) | Selective Index [4]: 10 | Phytotoxicity to paddy rice [5]: 1 (1%-39% of herbicidal efficacy or phytotoxicity) | False pimpernel pre (herbicidal efficacy grade) (false pimpernel [6]): 4 (90%-100% of herbicidal efficacy or phytotoxicity) | Burnyard grass post (herbicidal efficacy grade) (barnyard glass): 4 (90%-100% of herbicidal efficacy or phytotoxicity) | Herbicide effect to Bulrush (bulrush [7]): 4 (90%-100% of herbicidal efficacy or phytotoxicity)

CCC1(CC)CN(Cc2ccccc2N(C(=O)OCC(C)(C)C)S(=O)(=O)C(F)(F)F)C(=O)O1 [1-100]
Bulrush pre (herbicidal efficacy grade) (bulrush [1]): 4 (90%-100% of herbicidal efficacy or phytotoxicity) | Bulrush post (herbicidal efficacy grade) (bulrush [2]): 4 (90%-100% of herbicidal efficacy or phytotoxicity) | False pimpernel post (herbicidal efficacy grade) (false pimpernel [3]): 4 (90%-100% of herbicidal efficacy or phytotoxicity) | Selective Index [4]: 10 | Phytotoxicity to paddy rice [5]: 1 (1%-39% of herbicidal efficacy or phytotoxicity) | False pimpernel pre (herbicidal efficacy grade) (false pimpernel [6]): 4 (90%-100% of herbicidal efficacy or phytotoxicity) | Burnyard grass post (herbicidal efficacy grade) (barnyard glass): 4 (90%-100% of herbicidal efficacy or phytotoxicity) | Herbicide effect to Bulrush (bulrush [7]): 4 (90%-100% of herbicidal efficacy or phytotoxicity)
